Assay results as given in ChEMBL document CHEMBL1201862, “PubChem BioAssay data set” (2004).
Active and inactive are the calls of the source.

Legend:
Vero = experiment: cells; assay type: functional; conditions: Chlorocebus sabaeus
[1] = growth suppression of PTEN-null colon cells, dose response, cell-based, HCT116 PTEN knockout (AID 1047); assay type: functional;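 also: HCT116 colon tumor cells with PTEN knocked out; cells exposed to compound for 60 hours before readout; potency for loss of cell viability measured by luminescence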
INS1 = experiment: beta cell apoptosis inhibitors, cytokine rescue, dose response, luminescence, retest (AID 449756); assay type: functional, cell-based; conditions: Rattus norvegicus;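 also: cell death triggered by IL-1 beta plus TNF-alpha plus IFN-gamma mixture; protective hits raise ATP signal compared with cytokine alone wells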
[2] = growth suppression of beta-catenin-knockout colon cells, dose response, cell-based, HCT116, human colon tumor (AID 1045); assay type: functional;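 also: HCT116 colon tumor cells with beta catenin knocked out; cells exposed to compound for 60 hours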
[3] = target: Voltage-dependent T-type calcium channel subunit alpha-1H (Homo sapiens, UniProt O95180); assay type: functional;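 also: channel activity triggered by adding a high calcium stimulation buffer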
Caspase-3 = target: T1, Caspase-3 (Homo sapiens, UniProt P42574); assay type: functional;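 also: Dose-response selectivity test against caspase-3 for candidate inhibitors of sentrin-specific proteases (SENPs)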
T1 sequence (P42574 whole entry): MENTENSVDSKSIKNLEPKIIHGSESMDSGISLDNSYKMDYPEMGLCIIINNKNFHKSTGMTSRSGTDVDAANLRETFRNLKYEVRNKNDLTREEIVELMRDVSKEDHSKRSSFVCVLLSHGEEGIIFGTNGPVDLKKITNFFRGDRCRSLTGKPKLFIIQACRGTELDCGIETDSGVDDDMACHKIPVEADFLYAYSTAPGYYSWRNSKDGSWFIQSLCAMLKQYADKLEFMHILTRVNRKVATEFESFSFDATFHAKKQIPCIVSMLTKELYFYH

[4] = target: T2, Sentrin-specific protease 8 (Homo sapiens, UniProt Q96LD8); assay type: functional;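 also: luminescence read-out of SENP8 inhibition, dose-response confirmation following an ultra-high-throughput screen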
T2 sequence (Q96LD8 whole entry): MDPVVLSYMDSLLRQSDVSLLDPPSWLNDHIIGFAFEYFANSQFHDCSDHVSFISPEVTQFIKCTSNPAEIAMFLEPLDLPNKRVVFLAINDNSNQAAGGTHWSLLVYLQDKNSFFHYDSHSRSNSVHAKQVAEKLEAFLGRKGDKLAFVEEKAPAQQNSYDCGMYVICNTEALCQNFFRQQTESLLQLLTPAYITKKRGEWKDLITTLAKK

[5] = target: T3, Sentrin-specific protease 7 (Homo sapiens, UniProt Q9BQF6); assay type: functional;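 also: Luminescence-based dose-response confirmation of ultra-high-throughput screening hits, measuring inhibition of SENP7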
T3 sequence (Q9BQF6 whole entry): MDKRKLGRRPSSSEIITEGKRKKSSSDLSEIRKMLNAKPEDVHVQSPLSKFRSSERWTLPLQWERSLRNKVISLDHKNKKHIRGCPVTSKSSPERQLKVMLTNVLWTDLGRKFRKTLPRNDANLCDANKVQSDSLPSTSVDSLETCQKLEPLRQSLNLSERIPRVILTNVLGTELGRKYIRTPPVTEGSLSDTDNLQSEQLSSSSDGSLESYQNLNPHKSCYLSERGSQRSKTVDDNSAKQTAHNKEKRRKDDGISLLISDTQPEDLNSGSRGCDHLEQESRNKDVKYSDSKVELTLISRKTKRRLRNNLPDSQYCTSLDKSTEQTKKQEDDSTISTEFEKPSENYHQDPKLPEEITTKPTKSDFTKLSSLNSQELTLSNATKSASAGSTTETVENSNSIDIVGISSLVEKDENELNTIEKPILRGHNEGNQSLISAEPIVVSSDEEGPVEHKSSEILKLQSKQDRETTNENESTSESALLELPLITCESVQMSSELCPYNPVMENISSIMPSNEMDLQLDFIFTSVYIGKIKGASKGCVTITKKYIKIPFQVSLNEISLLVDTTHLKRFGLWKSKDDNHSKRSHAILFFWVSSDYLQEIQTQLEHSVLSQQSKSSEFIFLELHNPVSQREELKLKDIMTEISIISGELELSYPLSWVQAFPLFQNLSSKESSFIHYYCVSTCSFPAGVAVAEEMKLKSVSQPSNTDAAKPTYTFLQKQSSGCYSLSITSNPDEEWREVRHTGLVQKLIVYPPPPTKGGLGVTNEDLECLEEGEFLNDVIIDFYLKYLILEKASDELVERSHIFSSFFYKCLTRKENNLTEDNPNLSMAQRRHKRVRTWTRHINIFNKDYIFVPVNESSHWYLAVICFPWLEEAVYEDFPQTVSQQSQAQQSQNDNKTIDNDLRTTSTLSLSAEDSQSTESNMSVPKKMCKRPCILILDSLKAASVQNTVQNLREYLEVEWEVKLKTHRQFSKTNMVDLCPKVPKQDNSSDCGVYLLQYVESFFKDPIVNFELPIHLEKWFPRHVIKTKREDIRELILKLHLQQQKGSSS

[6] = target: T4, Sentrin-specific protease 6 (Homo sapiens, UniProt Q9GZR1); assay type: functional;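 also: Luminescence-based dose-response confirmatory assay of SENP6 inhibition, following up an ultra-high-throughput screen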
T4 sequence (Q9GZR1 whole entry): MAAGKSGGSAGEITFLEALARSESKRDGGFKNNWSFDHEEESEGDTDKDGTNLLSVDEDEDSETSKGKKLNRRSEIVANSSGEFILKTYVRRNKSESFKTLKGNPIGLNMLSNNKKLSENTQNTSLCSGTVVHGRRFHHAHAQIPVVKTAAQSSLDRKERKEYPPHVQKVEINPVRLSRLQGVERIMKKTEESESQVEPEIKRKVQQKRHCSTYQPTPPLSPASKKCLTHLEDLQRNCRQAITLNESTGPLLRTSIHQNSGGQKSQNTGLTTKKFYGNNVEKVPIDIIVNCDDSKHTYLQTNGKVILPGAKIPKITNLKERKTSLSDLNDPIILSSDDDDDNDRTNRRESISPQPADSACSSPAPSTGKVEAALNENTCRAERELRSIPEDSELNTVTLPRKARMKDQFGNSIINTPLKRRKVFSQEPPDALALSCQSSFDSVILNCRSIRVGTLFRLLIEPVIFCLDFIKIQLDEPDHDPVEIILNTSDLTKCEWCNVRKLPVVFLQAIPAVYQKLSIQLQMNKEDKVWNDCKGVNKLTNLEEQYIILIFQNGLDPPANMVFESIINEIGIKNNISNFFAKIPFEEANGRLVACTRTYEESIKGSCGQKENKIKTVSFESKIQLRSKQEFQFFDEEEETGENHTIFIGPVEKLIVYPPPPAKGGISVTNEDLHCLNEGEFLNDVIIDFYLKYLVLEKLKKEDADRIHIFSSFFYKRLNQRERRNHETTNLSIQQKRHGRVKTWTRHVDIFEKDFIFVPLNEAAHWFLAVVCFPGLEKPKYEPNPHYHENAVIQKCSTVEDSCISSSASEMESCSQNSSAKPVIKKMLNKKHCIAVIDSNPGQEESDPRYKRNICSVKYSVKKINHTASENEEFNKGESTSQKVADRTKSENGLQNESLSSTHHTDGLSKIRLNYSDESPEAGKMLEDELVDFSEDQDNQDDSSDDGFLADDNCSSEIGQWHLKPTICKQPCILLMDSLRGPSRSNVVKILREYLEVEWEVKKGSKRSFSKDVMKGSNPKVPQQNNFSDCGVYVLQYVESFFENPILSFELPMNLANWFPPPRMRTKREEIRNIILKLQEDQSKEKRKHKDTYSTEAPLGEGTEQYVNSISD

[7] = target: T5, Carboxy-terminal domain RNA polymerase II polypeptide A small phosphatase 1 (Homo sapiens, UniProt Q9GZU7); experiment: inhibitors of CTDSP1, concentration-response testing, biochemical assay, absorbance-based, actives from ultra-high-throughput screening (AID 540297); assay type: functional
T5 sequence (Q9GZU7 whole entry): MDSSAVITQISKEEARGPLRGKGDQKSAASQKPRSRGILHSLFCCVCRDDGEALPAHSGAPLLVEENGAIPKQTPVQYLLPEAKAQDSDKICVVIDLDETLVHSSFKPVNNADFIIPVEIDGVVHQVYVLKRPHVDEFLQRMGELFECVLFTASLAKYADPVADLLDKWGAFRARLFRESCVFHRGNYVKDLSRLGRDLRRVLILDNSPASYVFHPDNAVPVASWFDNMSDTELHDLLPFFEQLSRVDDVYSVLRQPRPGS

Estrogen receptor = target: T6, Estrogen receptor (Homo sapiens, UniProt P03372);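 also: potency for inhibiting coactivator peptide recruitment to the receptor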
T6 sequence (P03372 whole entry): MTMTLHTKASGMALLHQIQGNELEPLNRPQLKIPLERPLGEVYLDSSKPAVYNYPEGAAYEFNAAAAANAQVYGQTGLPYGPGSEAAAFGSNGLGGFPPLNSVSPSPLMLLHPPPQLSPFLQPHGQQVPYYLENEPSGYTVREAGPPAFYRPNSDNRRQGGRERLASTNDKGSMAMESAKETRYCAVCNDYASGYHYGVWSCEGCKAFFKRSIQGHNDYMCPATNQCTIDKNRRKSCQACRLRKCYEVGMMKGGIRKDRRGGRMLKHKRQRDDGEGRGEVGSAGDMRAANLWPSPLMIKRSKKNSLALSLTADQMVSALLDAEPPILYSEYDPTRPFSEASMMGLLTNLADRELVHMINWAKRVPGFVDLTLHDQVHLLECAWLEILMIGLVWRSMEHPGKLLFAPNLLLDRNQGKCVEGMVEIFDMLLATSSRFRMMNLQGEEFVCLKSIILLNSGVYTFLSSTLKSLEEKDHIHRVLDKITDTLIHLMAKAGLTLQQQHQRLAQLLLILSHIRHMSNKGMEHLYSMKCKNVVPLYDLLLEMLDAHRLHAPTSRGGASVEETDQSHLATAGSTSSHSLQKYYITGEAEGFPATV

[8] = target: T7, Alkaline phosphatase, tissue-nonspecific isozyme (Homo sapiens, UniProt P05186); experiment: TNAP enzyme inhibition by screening hits, dose response, selectivity assay for mouse IAP inhibitor project, biochemical, human TNAP, uHTS hits (AID 488906); assay type: functional
T7 sequence (P05186 whole entry): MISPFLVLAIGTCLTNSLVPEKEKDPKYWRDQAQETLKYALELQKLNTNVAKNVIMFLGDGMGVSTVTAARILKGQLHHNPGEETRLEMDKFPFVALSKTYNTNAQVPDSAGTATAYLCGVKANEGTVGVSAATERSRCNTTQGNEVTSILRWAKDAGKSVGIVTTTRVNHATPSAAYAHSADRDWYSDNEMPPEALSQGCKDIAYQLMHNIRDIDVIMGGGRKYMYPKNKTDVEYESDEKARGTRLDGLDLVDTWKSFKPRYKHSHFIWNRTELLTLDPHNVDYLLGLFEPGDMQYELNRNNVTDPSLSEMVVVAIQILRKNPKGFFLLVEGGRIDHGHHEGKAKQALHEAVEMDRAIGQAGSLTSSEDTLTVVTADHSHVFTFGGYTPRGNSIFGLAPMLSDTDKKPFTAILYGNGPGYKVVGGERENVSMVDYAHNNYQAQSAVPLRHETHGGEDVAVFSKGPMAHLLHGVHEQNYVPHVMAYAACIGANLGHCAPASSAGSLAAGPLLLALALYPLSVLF

[9] = target: Intestinal-type alkaline phosphatase (Homo sapiens, UniProt P09923); experiment: activation of human intestinal alkaline phosphatase – biochemical, dose response (AID 488873); assay type: functional
[10] = target: Intestinal-type alkaline phosphatase (Mus musculus, UniProt P24822); experiment: PubChem AID 488785; assay type: functional
HEK293 [11] = experiment: cells; assay type: functional, cell-based; conditions: Homo sapiens
HEK293 [12] = experiment: cells; assay type: functional, cell-based; conditions: Homo sapiens; remark: listed apart in the source
HEK293 [13] = experiment: NOD1 signaling inhibitors, primary screen, cell-based, luminescence, uHTS (AID 1578); assay type: functional; conditions: Homo sapiens
HEK293 [14] = experiment: NOD2 signaling inhibitors in MDP-stimulated cells, cell-based, uHTS, luminescence (AID 2001); assay type: functional; conditions: Homo sapiens

Sequence of Voltage-dependent T-type calcium channel subunit alpha-1H (O95180 whole entry): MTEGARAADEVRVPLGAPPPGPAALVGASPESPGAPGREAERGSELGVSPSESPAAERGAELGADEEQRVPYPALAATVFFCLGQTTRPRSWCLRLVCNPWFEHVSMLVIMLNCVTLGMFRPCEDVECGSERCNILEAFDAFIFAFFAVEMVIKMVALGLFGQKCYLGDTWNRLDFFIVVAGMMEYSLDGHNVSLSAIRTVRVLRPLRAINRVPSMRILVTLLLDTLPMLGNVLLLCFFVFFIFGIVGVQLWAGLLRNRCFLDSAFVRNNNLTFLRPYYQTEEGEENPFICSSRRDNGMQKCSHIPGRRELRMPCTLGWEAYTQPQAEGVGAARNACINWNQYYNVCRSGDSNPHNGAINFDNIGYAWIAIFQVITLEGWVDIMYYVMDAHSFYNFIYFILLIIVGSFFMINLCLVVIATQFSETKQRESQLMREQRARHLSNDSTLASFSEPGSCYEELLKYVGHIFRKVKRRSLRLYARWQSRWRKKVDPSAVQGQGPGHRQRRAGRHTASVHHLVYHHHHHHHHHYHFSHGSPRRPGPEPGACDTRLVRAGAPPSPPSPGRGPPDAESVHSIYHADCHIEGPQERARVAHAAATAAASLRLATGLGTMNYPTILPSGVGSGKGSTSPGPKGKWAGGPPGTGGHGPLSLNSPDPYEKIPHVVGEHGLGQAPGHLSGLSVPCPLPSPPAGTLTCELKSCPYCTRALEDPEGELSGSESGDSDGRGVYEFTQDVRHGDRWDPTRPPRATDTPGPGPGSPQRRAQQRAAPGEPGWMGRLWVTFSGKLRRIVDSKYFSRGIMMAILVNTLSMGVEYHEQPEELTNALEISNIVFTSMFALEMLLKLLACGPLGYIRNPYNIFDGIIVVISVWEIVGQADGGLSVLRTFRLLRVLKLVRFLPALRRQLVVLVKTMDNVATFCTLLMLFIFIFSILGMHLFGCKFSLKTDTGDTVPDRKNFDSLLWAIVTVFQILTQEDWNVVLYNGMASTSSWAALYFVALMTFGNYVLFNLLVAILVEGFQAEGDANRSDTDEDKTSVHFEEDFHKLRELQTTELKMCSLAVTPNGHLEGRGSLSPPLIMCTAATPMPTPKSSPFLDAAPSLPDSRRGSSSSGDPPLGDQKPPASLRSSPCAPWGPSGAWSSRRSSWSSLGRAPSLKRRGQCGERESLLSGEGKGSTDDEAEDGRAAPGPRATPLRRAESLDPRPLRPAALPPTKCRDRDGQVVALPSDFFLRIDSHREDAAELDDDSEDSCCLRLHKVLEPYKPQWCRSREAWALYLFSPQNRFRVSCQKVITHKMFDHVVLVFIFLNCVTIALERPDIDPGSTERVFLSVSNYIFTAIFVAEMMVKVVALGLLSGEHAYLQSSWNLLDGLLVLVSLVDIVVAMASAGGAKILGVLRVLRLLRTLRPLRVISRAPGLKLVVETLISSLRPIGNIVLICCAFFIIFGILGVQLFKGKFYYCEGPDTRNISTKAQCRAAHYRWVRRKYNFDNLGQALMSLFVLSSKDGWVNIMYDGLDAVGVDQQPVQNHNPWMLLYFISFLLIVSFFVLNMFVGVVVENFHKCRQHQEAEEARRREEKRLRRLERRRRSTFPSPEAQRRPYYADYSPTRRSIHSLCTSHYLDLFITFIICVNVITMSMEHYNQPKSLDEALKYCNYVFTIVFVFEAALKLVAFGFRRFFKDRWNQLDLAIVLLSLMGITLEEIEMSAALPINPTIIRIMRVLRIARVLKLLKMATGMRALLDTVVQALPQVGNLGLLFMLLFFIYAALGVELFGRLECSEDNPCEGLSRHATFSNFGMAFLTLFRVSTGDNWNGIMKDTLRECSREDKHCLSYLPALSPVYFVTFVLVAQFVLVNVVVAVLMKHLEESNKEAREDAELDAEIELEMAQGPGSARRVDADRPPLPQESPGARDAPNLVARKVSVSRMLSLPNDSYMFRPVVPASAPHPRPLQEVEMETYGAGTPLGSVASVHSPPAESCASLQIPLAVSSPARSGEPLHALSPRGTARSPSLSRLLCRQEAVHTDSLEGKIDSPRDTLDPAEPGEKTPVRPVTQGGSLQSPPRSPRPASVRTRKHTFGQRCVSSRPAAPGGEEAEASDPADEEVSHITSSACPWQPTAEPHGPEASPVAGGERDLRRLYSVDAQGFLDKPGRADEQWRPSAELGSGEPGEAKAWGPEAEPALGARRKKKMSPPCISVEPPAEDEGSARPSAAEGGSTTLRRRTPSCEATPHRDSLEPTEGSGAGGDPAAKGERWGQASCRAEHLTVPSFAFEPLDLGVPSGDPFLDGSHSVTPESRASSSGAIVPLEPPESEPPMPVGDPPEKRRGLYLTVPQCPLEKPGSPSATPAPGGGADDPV
Sequence of Intestinal-type alkaline phosphatase (Mus musculus, UniProt P24822) (P24822 whole entry): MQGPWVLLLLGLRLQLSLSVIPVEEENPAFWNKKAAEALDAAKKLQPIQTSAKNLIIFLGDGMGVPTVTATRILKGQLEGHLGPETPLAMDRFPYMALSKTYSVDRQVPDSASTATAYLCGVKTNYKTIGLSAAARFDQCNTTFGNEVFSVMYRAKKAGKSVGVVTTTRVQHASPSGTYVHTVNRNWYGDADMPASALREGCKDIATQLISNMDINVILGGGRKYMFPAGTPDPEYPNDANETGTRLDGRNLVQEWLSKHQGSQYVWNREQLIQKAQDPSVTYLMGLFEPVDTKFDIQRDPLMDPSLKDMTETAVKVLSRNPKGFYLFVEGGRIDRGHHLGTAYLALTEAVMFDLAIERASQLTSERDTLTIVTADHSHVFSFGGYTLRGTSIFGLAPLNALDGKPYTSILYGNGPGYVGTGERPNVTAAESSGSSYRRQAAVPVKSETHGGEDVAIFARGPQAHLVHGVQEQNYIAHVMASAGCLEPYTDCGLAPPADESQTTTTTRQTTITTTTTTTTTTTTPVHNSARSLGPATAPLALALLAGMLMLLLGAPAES
Sequence of Intestinal-type alkaline phosphatase (Homo sapiens, UniProt P09923) (P09923 whole entry): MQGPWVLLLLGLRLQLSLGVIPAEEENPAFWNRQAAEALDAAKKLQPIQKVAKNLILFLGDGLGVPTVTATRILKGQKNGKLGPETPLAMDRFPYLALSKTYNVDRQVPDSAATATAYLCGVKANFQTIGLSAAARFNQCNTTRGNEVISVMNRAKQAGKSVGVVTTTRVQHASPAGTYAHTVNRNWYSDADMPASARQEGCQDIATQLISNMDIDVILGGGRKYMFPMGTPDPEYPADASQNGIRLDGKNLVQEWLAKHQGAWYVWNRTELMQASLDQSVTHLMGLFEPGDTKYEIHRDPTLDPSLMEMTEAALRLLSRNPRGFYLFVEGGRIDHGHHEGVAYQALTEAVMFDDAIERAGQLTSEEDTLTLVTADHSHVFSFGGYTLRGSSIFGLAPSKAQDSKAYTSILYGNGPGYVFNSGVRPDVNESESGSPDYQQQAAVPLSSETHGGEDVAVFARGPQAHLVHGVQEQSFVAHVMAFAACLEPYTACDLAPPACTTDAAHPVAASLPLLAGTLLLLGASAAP

Q: With `COc1ccc(NCc2nnc(SCC(=O)Nc3nc(-c4ccccc4)cs3)n2-c2ccccc2)cc1` as the molecule, how does the CC50 (Vero) read?
A: Its CC50 is 8.35 µM (active).

Q: What about the EC50 [1] of the same molecule?
A: Its EC50 is 2.78 µM (active).

Q: And the AC50 (INS1)?
A: Its AC50 is 6.62 µM (active).

Q: What about the EC50 [2] of the same molecule?
A: The EC50 was 2.54 µM (active).

Q: With `CCn1c(CNc2ccc(Cl)cc2)nnc1SCC(=O)OC1CCCCC1` as the molecule, how does the EC50 [3] read?
A: Its EC50 is 2.56 µM (active).

Q: Which results are given for `O=C(Nc1ccc2ccccc2c1)c1cccc(F)c1`?
A: IC50 (Caspase-3): 18.3 µM (active); IC50 [4]: > 100 µM (inactive); IC50 [5]: 4.43 µM (active); IC50 [6]: 5.72 µM (active)

Q: For `Cc1ccccc1CSCC(=O)NC(=O)NCc1ccco1`, which IC50 [7] is on record?
A: The IC50 was 10.4 µM (active).

Q: And the IC50 (Estrogen receptor)?
A: The IC50 was 9.27 µM (active).

Q: For `COc1ccccc1CNC(=O)CCNS(=O)(=O)c1ccc2[nH]c(=O)oc2c1`, which IC50 [8] is on record?
A: Its IC50 is 27.5 µM (active).

Q: And the EC50 [9]?
A: The EC50 was 45.1 µM (active).

Q: What about the IC50 [10] of the same molecule?
A: Its IC50 is 11.4 µM (active).

Q: With `Cc1ccc(S(=O)(=O)Nc2ccc3nc(-c4cccn4C)[nH]c3c2)cc1` as the molecule, how does the EC50 [3] read?
A: Its EC50 is 5.6 µM (active).

Q: With `COc1cccc(CNC(=O)CSCc2cnn(-c3ccccc3)c2-n2cccc2)c1` as the molecule, how does the EC50 [3] read?
A: The EC50 was 3.66 µM (active).

Q: With `FC(F)(F)c1cc(C(F)(F)F)c2ccc(Oc3ccccc3)nc2n1` as the molecule, how does the EC50 [3] read?
A: Its EC50 is 4.65 µM (active).

Q: Which EC50 [3] does the source give for `Cc1cc(N2CCC(C(=O)Nc3ccc(F)cc3)CC2)nc(-c2ccccc2)n1` here?
A: Its EC50 is 4.26 µM (active).

Q: For `CCCCCC(=O)N1C[C@H](O)[C@@H](n2cc(-c3ccc(F)cc3)nn2)C[C@@H]1c1ccc(Cl)cc1`, which CC50 (Vero) is on record?
A: The CC50 was > 25 µM (active).

Q: For `COC(=O)c1scc(S(=O)(=O)C(C)C)c1N/N=C(\C#N)C(=O)c1ccc(Cl)cc1`, which IC50 (HEK293 [11]) is on record?
A: The IC50 was > 20 µM (inactive).

Q: What about the IC50 (HEK293 [12]) of the same molecule?
A: Its IC50 is > 20 µM (inactive).

Q: And the EC50 (HEK293 [13])?
A: The EC50 was 2.17 µM (active).

Q: What about the IC50 (HEK293 [14]) of the same molecule?
A: Its IC50 is > 20 µM (inactive).
